Measured values published in paper PMC6356765, “Nepafenac-Loaded Cyclodextrin/Polymer Nanoaggregates: A New Approach to Eye Drop Formulation” (Materials, 2019).

Columns and labels:
[1] = parameters: method as in PMID 27513223, PMID 18500088, PMID 17189793, PMID 28493461; conditions: powdered form; cited from earlier work
[2] = Chemical stability of nepafenac in 1% w/v γCD solution after heating by sonication; format: physicochemical; conditions: for Mean (± SD) Nepafenac Concentration: aqueous 1% w/v γCD, n = 3
Description: The chemical stability of nepafenac was determined in aqueous solution containing 1% w/v γCD following heating by sonication. The solution was shaken for 24 h until the drug was completely dissolved and then passed through a 0.45 µm membrane filter. The solution was then divided between four sealed vials. Vial 1 was used as a blank. Vials 2, 3 and 4 were heated in a sonicator at 60 °C for 20, 40 and 60 min, respectively. Drug concentrations were determined by HPLC.
The HPLC assay was performed using a reverse-phase ultra-high-performance liquid chromatography (UHPLC) Ultimate 3000 series system (Dionex Softron GmbH, Germering, Germany) consisting of a LPG-3400SD pump (Dionex, Germering, Germany) with a built-in degasser, WPS-3000 autosampler (Dionex, Germering, Germany), TCC-3100 column compartment (Dionex, Germering, Germany) and CoronaR ultra RS detector (Dionex, Germering, Germany). During the stationary phase, a Phenomenex Kinetex C18 column (150 × 4.6 mm, 5 µm) with matching HPLC Security Guard (Phenomenex, Cheshire, UK) was used. The mobile phase used a mixture of acetonitrile and water (50:50). The flow rate was 1 mL/min, the column oven temperature was ±25 °C and the detection wave length was set to 254 nm. The retention time for nepafenac under these conditions was 2.3 min.

[3] = Phase solubility studies of nepafenac with cyclodextrins; format: physicochemical; conditions: pure 2.5% HPβCD, aqueous (Figure 2)
Description: The solubility of nepafenac in combination with different cyclodextrin concentrations was determined following heating by sonication. Firstly, an excess amount of nepafenac (approximately 5 mg) was added to aqueous solutions containing known concentrations of CDs (ranging up to 15% (w/v) for αCD, γCD, HPαCD, HPβCD, HPγCD and 1.5% (w/v) for βCD) in pure water. The drug suspensions were saturated with nepafenac and heated in a sonicator in sealed vials at 60 °C for 60 min, before being allowed to cool to room temperature. Then, a small amount of solid nepafenac (approximately 2 mg) was added to each suspension to produce drug precipitation. Vials were resealed and placed in a shaker under constant agitation for 7 days. After reaching equilibrium, suspensions were filtered using 0.45 µm membrane filters, before being diluted in pure water and analysed by UHPLC. Determinations were made in triplicate. […]
The apparent stability constant (K1:1) according to the hypothesis of a 1:1 stoichiometric ratio of complexes was calculated using the following equation:(1) K1:1 = slope/S0(1−slope)
In addition, complexation efficiency (CE) was calculated. This factor can be calculated either from the slope of the phase solubility profile or from the ratio of the concentration of the drug/CD complex to free CD [52]:(2) CE=slope/(1−slope)=[Guess/CD complex]/[CD]

[4] = tested on: human cornea epithelial cell line; parameters: method as in PMID 9706061; conditions: cited from earlier work

Row | SMILES | Biopharmaceutical Classification System class [1] | Degradation of nepafenac on heating by sonication ([2]; CD aqueous solutions, sonicator heating) | Mean (± SD) Nepafenac Concentration ([2]; sonication 60 °C 20 min) [µg/mL] | Mean (± SD) Nepafenac Concentration ([2]; sonication 60 °C 40 min) [µg/mL] | Mean (± SD) Nepafenac Concentration ([2]; sonication 60 °C 60 min) [µg/mL] | Solubility of nepafenac [3] [µg/mL] | Cytotoxic profile (ranking among CDs) [4]
1 | NC(=O)Cc1cccc(C(=O)c2ccccc2)c1N [Nepafenac, 2-amino-3-benzoylbenzeneacetamide] | class IV | no degradation | 6.41 ± 0.08 | 6.49 ± 0.07 | 6.57 ± 0.08 | 850 | –
2 | OC[C@H]1O[C@@H]2O[C@H]3[C@H](O)[C@@H](O)[C@@H](O[C@H]4[C@H](O)[C@@H](O)[C@@H](O[C@H]5[C@H](O)[C@@H](O)[C@@H](O[C@H]6[C@H](O)[C@@H](O)[C@@H](O[C@H]7[C@H](O)[C@@H](O)[C@@H](O[C@H]8[C@H](O)[C@@H](O)[C@@H](O[C@H]9[C@H](O)[C@@H](O)[C@@H](O[C@H]1[C@H](O)[C@H]2O)O[C@@H]9CO)O[C@@H]8CO)O[C@@H]7CO)O[C@@H]6CO)O[C@@H]5CO)O[C@@H]4CO)O[C@@H]3CO [γCD, γ-cyclodextrin] | – | – | – | – | – | – | least cytotoxic profile
